Experimental data taken from paper PMC6440935, “Characterization and phase I study of CLR457, an orally bioavailable pan-class I PI3-kinase inhibitor” (Investigational New Drugs, 2018).
Where two headings read alike, the source gives them in different places.

Settings: drug-related

C[C@H]1OC(=O)N(c2cc(-c3cnc(N)nc3C(F)(F)F)nc(N3CCOCC3)n2)[C@H]1CO [CLR457]
Decreased neutrophil count, All Grade (40 mg, N = 5): 0 n (%)
Decreased neutrophil count, Grade ≥ 3 (40 mg, N = 5): 0 n (%)
Dehydration, All Grade (40 mg, N = 5): 0 n (%)
Dehydration, Grade ≥ 3 (40 mg, N = 5): 0 n (%)
Diarrhea, All Grade (40 mg, N = 5): 3 (60.0) n (%)
Diarrhea, Grade ≥ 3 (40 mg, N = 5): 0 n (%)
Dry mouth, All Grade (40 mg, N = 5): 0 n (%)
Dry mouth, Grade ≥ 3 (40 mg, N = 5): 0 n (%)
Dry skin, All Grade (40 mg, N = 5): 0 n (%)
Dry skin, Grade ≥ 3 (40 mg, N = 5): 0 n (%)
Dysgeusia, All Grade (40 mg, N = 5): 1 (20.0) n (%)
Dysgeusia, Grade ≥ 3 (40 mg, N = 5): 0 n (%)
Fatigue, All Grade (40 mg, N = 5): 1 (20.0) n (%)
Fatigue, Grade ≥ 3 (40 mg, N = 5): 0 n (%)
Headache, All Grade (40 mg, N = 5): 0 n (%)
Headache, Grade ≥ 3 (40 mg, N = 5): 0 n (%)
Hyperglycemia, All Grade (40 mg, N = 5): 2 (40.0) n (%)
Hyperglycemia, Grade ≥ 3 (40 mg, N = 5): 0 n (%)
Hypomagnesaemia, All Grade (40 mg, N = 5): 0 n (%)
Hypomagnesaemia, Grade ≥ 3 (40 mg, N = 5): 0 n (%)
Maculo-papular rash, All Grade (40 mg, N = 5): 2 (40.0) n (%)
Maculo-papular rash, Grade ≥ 3 (40 mg, N = 5): 2 (40.0) n (%)
Nausea, All Grade (40 mg, N = 5): 2 (40.0) n (%)
Nausea, Grade ≥ 3 (40 mg, N = 5): 0 n (%)
Pneumonitis, All Grade (40 mg, N = 5): 0 n (%)
Pneumonitis, Grade ≥ 3 (40 mg, N = 5): 0 n (%)
Pruritus, All Grade (40 mg, N = 5): 1 (20.0) n (%)
Pruritus, Grade ≥ 3 (40 mg, N = 5): 0 n (%)
Pyrexia, All Grade (40 mg, N = 5): 0 n (%)
Pyrexia, Grade ≥ 3 (40 mg, N = 5): 0 n (%)
Rash, All Grade (40 mg, N = 5): 0 n (%)
Rash, Grade ≥ 3 (40 mg, N = 5): 0 n (%)
Stomatitis, All Grade (40 mg, N = 5): 3 (60.0) n (%)
Stomatitis, Grade ≥ 3 (40 mg, N = 5): 0 n (%)
Vomiting, All Grade (40 mg, N = 5): 1 (20.0) n (%)
Vomiting, Grade ≥ 3 (40 mg, N = 5): 0 n (%)
Weight decreased, All Grade (40 mg, N = 5): 1 (20.0) n (%)
Weight decreased, Grade ≥ 3 (40 mg, N = 5): 0 n (%)
Asthenia, Grade ≥ 3 (70 mg, N = 6): 0 n (%)
Chills, All Grade (70 mg, N = 6): 0 n (%)
Chills, Grade ≥ 3 (70 mg, N = 6): 0 n (%)
Colitis, All Grade (70 mg, N = 6): 1 (16.7) n (%)
Colitis, Grade ≥ 3 (70 mg, N = 6): 1 (16.7) n (%)
Cough, All Grade (70 mg, N = 6): 0 n (%)
Cough, Grade ≥ 3 (70 mg, N = 6): 0 n (%)
Decreased appetite, All Grade (70 mg, N = 6): 2 (33.3) n (%)
Decreased appetite, Grade ≥ 3 (70 mg, N = 6): 0 n (%)
Decreased neutrophil count, All Grade (70 mg, N = 6): 1 (16.7) n (%)
Decreased neutrophil count, Grade ≥ 3 (70 mg, N = 6): 0 n (%)
Dehydration, All Grade (70 mg, N = 6): 1 (16.7) n (%)
Dehydration, Grade ≥ 3 (70 mg, N = 6): 1 (16.7) n (%)
Diarrhea, All Grade (70 mg, N = 6): 4 (66.7) n (%)
Diarrhea, Grade ≥ 3 (70 mg, N = 6): 1 (16.7) n (%)
Dry mouth, All Grade (70 mg, N = 6): 1 (16.7) n (%)
Dry mouth, Grade ≥ 3 (70 mg, N = 6): 0 n (%)
Dry skin, All Grade (70 mg, N = 6): 1 (16.7) n (%)
Dry skin, Grade ≥ 3 (70 mg, N = 6): 0 n (%)
Dysgeusia, All Grade (70 mg, N = 6): 0 n (%)
Dysgeusia, Grade ≥ 3 (70 mg, N = 6): 0 n (%)
Fatigue, All Grade (70 mg, N = 6): 1 (16.7) n (%)
Fatigue, Grade ≥ 3 (70 mg, N = 6): 0 n (%)
Headache, All Grade (70 mg, N = 6): 1 (16.7) n (%)
Headache, Grade ≥ 3 (70 mg, N = 6): 0 n (%)
Hyperglycemia, All Grade (70 mg, N = 6): 1 (16.7) n (%)
Hyperglycemia, Grade ≥ 3 (70 mg, N = 6): 0 n (%)
Hypomagnesaemia, All Grade (70 mg, N = 6): 1 (16.7) n (%)
Hypomagnesaemia, Grade ≥ 3 (70 mg, N = 6): 0 n (%)
Maculo-papular rash, All Grade (70 mg, N = 6): 2 (33.3) n (%)
Maculo-papular rash, Grade ≥ 3 (70 mg, N = 6): 1 (16.7) n (%)
Nausea, All Grade (70 mg, N = 6): 2 (33.3) n (%)
Nausea, Grade ≥ 3 (70 mg, N = 6): 0 n (%)
Pneumonitis, All Grade (70 mg, N = 6): 0 n (%)
Pneumonitis, Grade ≥ 3 (70 mg, N = 6): 0 n (%)
Pruritus, All Grade (70 mg, N = 6): 1 (16.7) n (%)
Pruritus, Grade ≥ 3 (70 mg, N = 6): 0 n (%)
Pyrexia, All Grade (70 mg, N = 6): 1 (16.7) n (%)
Pyrexia, Grade ≥ 3 (70 mg, N = 6): 0 n (%)
Rash, All Grade (70 mg, N = 6): 2 (33.3) n (%)
Rash, Grade ≥ 3 (70 mg, N = 6): 1 (16.7) n (%)
Stomatitis, All Grade (70 mg, N = 6): 2 (33.3) n (%)
Stomatitis, Grade ≥ 3 (70 mg, N = 6): 0 n (%)
Vomiting, All Grade (70 mg, N = 6): 2 (33.3) n (%)
Vomiting, Grade ≥ 3 (70 mg, N = 6): 0 n (%)
Weight decreased, All Grade (70 mg, N = 6): 1 (16.7) n (%)
Weight decreased, Grade ≥ 3 (70 mg, N = 6): 0 n (%)
Asthenia, Grade ≥ 3 (100 mg, N = 11): 0 n (%)
Chills, All Grade (100 mg, N = 11): 2 (18.2) n (%)
Chills, Grade ≥ 3 (100 mg, N = 11): 0 n (%)
Colitis, All Grade (100 mg, N = 11): 1 (9.1) n (%)
Colitis, Grade ≥ 3 (100 mg, N = 11): 1 (9.1) n (%)
Cough, All Grade (100 mg, N = 11): 2 (18.2) n (%)
Cough, Grade ≥ 3 (100 mg, N = 11): 0 n (%)
Decreased appetite, All Grade (100 mg, N = 11): 4 (36.4) n (%)
Decreased appetite, Grade ≥ 3 (100 mg, N = 11): 0 n (%)
Decreased neutrophil count, All Grade (100 mg, N = 11): 1 (9.1) n (%)
Decreased neutrophil count, Grade ≥ 3 (100 mg, N = 11): 1 (9.1) n (%)
